Columns and labels:
[1] = target: T1, endogenous A2BR in human monocyte‐derived M2‐like macrophages (Homo sapiens, UniProt P29275); assay: Flow cytometry of PSB603‐BY630 binding to M2‐like macrophages; assay type: cell-based; details: 100 nM PSB603‐BY630, 10 μM unlabelled PSB603, six donors, p <.01 paired t‐test
T1 construct: monitor endogenous A2BR expression on human macrophages; endogenous in cells; host or cells: M1-like (GMCSF) and M2-like (MCSF) macrophages differentiated from CD14+ monocytes of healthy human donors
T1 sequence (P29275 1-332): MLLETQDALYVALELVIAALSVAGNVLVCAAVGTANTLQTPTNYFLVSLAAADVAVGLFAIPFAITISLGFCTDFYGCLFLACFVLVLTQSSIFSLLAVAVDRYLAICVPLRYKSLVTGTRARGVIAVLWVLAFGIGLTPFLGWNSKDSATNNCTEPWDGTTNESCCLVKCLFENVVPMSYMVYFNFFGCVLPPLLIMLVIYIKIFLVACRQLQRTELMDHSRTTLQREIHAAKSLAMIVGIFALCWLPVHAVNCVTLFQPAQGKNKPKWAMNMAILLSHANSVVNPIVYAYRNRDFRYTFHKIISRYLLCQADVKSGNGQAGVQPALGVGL
Procedure: (§1) One hundred and fifty milliliter peripheral blood was obtained in heparinised 60 mL syringes by venepuncture from healthy volunteers after written informed consent (Ethics from University of Nottingham Ethics committee, ref 161–1711). Peripheral blood mononuclear cells (PBMC) were immediately separated by density centrifugation over Lymphoprep (Stemcell, UK) at 800g for 25 min on low brake followed by washes in endotoxin‐free phosphate‐buffered saline (PBS, Sigma). PBMC were washed in MACS buffer (PBS + 1% fetal calf serum (FCS, Sigma) + […] (Sigma)) then incubated with CD14 microbeads (Miltenyi Biotech) and monocytes isolated by magnetic separation on an AutoMACS Pro cell separator (Miltenyi). Cell purity was routinely assessed by flow cytometry (>95%). […]
(§2) Harvested macrophages were resuspended in staining buffer (HBSS [Sigma] supplemented with 2.5% v/v FCS and Ethylenediaminetetraacetic acid‐ EDTA 5 mM) at 2 × 10^6 cells/mL. […] BODIPY 630/650 fluorescence was measured on a MACSQuant 10 Flow Cytometer (Miltenyi) immediately after incubation (>5 × 10^4 events acquired). Flow cytometry data were analyzed using FlowJo software v10. […]

NLuc‐A2BR = target: T2, NLuc‐A2BR (Homo sapiens, UniProt P29275); assay: NanoBRET competition binding against 50 nM PSB603‐BY630 in HEK293G cells expressing NLuc‐A2BR
T2 construct: expressed in transfected cells
T2 sequence (P29275 1-332): T1 sequence (P29275 1-332)
Procedure: Saturation and competition binding assays were performed as previously described.[36] Briefly, cells were seeded in 96‐well white clear‐bottomed Greiner plates pre‐treated with 10 μg/mL poly‐D‐lysine (Sigma‐Aldrich, Missouri USA) at a density of 30 000–35 000 cells per well in DMEM supplemented with 10% FBS. […] The NanoLuc substrate, furimazine (Promega Corporation, Wisconsin, USA), was then added to each well (1:400 dilution) and the plate was incubated for 10 min in the dark at 37°C. The resulting bioluminescence resonance energy transfer (BRET) was measured using a PHERAstar FS plate reader (BMG Labtech) at 37°C. For each well, filtered light emissions at 460 nm (80 nm bandpass) and >610 nm (longpass) for the BODIPY630/650 ligand were simultaneously measured. BRET ratios were calculated by dividing the 610 nm emission by the 460 nm emission. All conditions were performed in 2–6 replicates within each plate. For kinetic experiments, cells were preincubated for 10 min with 1:400 dilution of furimazine prior to addition of 200 nM PSB603‐BY630 and BRET ratios determined every 0.5 min.
The IC 50 values were then used to calculate the K i values using the Cheng‐Prussoff equation: Ki=IC50/1+L/KD where [L] is the concentration of PSB603‐BY630 in nM, and K D is the dissociation constant of that fluorescent ligand in nM.

A2BR = test system: A2BR; design: method as in PMID 29106905, PMID 19569717; details: cited from earlier work
[2] = target: T3, endogenous A2BR in human monocyte‐derived M1‐like macrophages (Homo sapiens, UniProt P29275); assay: Flow cytometry of PSB603‐BY630 binding to M1‐like macrophages; assay type: cell-based; details: 100 nM PSB603‐BY630, 10 μM unlabelled PSB603, six donors, p <.01 paired t‐test
T3 construct: monitor endogenous A2BR expression on human macrophages; endogenous in cells; host or cells: M1-like (GMCSF) and M2-like (MCSF) macrophages differentiated from CD14+ monocytes of healthy human donors
T3 sequence (P29275 1-332): T1 sequence (P29275 1-332)
Procedure: as §1, §2

## CCCn1c(=O)[nH]c2nc(-c3ccc(S(=O)(=O)N4CCN(c5ccc(Cl)cc5)CC4)cc3)[nH]c2c1=O [PSB603, 8‐[4‐[4‐(4‐Chlorophenzyl)piperazide‐1‐sulfonylphenyl]]‐1‐propylxanthine]
[1]
  inhibition of PSB603‐BY630 binding (median fluorescence intensity): significant inhibiton
NLuc‐A2BR
  Appararent Log K i: −9.12 ± 0.08
  Log IC50: −8.55 ± 0.08
A2BR
  affinity for A2BR: sub‐nanomolar
[2]
  inhibition of PSB603‐BY630 binding (median fluorescence intensity): significant inhibiton
